From patent US20260062443A1 (ALEXION PHARMACEUTICALS, INC., priority 2022, published 2026)

biological target: T1, Human complement C1s enzyme (Homo sapiens, UniProt P09871); experiment: Human C1s enzyme assay; format: biochemical; conditions: human complement C1s enzyme 1.16 nM, substrate Z-L-Lys-SBzl 100 μM, 5 min preincubation; read-out: IC50 (Stars), C1s Inhibiting Activity
T1 sequence (P09871 438-688 limits assumed): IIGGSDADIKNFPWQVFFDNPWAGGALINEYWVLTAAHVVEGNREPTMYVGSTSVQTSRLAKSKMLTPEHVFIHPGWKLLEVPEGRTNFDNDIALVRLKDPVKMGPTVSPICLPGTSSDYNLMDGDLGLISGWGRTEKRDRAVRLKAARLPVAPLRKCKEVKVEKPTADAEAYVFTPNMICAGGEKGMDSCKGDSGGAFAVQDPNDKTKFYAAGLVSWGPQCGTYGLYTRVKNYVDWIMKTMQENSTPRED
T1 sequence (P09871 16-437 partner limits assumed): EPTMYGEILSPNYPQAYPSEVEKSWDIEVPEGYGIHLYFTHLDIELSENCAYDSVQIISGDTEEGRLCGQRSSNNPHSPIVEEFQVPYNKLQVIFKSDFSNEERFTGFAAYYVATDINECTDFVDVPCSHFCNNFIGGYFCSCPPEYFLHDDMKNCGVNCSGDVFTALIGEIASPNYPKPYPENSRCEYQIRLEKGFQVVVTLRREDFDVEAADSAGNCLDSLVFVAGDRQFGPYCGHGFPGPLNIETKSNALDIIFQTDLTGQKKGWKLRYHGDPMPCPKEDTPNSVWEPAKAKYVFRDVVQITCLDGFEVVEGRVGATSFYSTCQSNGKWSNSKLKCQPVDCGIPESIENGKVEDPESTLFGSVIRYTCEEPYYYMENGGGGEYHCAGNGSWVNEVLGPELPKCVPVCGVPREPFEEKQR
Protocol: Other standard complement assays are also available.
Human complement C1s enzyme (purified from human serum, Complement Technology, Inc.) at 1.16 nM final concentration was incubated with test compound at various concentrations for 5 min at room temperature in 50 mM Tris, 1 M NaCl, pH 7.5. A synthetic substrate Z-L-Lys-SBzl and DTNB (Ellman's reagent) were added to final concentrations of 100 μM each. Absorbance at 405 nm (A405) was recorded at 30 second intervals for 30 min using a microplate spectrophotometer. IC50 values were calculated by nonlinear regression of complement C1 s reaction rates as a function of test compound concentration.
ND indicates a compound for which the IC50 value is not determined.

Row | SMILES | IC50
1 | O=C(NCC(=O)N1CC2(C[C@H]1C(=O)NCc1cc3cnccc3[nH]1)OCCO2)c1ccc2c(c1)Sc1ccccc1O2 [Compound 24, (S)-N-((1H-pyrrolo[3,2-c]pyridin-2-yl)methyl)-7-((phenoxathiine-2-carbonyl)glycyl)-1,4-dioxa-7-azaspiro[4.4]nonane-8-carboxamide] | < 100 nM
2 | O=C(NCC(=O)N1C[C@@](F)(CF)C[C@H]1C(=O)NCc1cc2cnccc2[nH]1)c1ccc2c(c1)Oc1ccccc1S2 [Compound 26, (2S,4R)-N-((1H-pyrrolo[3,2-c]pyridin-2-yl)methyl)-4-fluoro-4-(fluoromethyl)-1-((phenoxathiine-3-carbonyl)glycyl)pyrrolidine-2-carboxamide] | < 100 nM
3 | C[C@@]12C[C@@H]1N(C(=O)CNC(=O)c1ccc(Oc3ccccc3)cc1)[C@H](C(=O)NCc1cc3cnccc3[nH]1)C2 [Compound 28, (1S,3S,5S)-N-((1H-pyrrolo[3,2-c]pyridin-2-yl)methyl)-5-methyl-2-((4-phenoxybenzoyl)glycyl)-2-azabicyclo[3.1.0]hexane-3-carboxamide] | < 100 nM
4 | O=C(NCC(=O)N1CC2(C[C@H]1C(=O)NCc1cc3cnccc3[nH]1)OCCO2)c1ccc(C(=O)c2ccccc2)cc1 [Compound 33, (S)-N-((1H-pyrrolo[3,2-c]pyridin-2-yl)methyl)-7-((4-benzoylbenzoyl)glycyl)-1,4-dioxa-7-azaspiro[4.4]nonane-8-carboxamide] | < 100 nM
5 | O=C(NCC(=O)N1CC2(C[C@H]1C(=O)NCc1cc3ncccc3[nH]1)OCCO2)c1ccc2c(c1)-c1ccccc1C2(F)F [Compound 34, (S)-N-((1H-pyrrolo[3,2-b]pyridin-2-yl)methyl)-7-((9,9-difluoro-9H-fluorene-3-carbonyl)glycyl)-1,4-dioxa-7-azaspiro[4.4]nonane-8-carboxamide] | > 1000 nM
6 | O=C(NCC(=O)N1C[C@H](OC(F)F)C[C@H]1C(=O)NCc1cc2cnccc2[nH]1)c1ccc2c(c1)Oc1ccccc1S2 [Compound 36, (2S,4R)-N-((1H-pyrrolo[3,2-c]pyridin-2-yl)methyl)-4-(difluoromethoxy)-1-((phenoxathiine-3-carbonyl)glycyl)pyrrolidine-2-carboxamide] | < 100 nM
7 | O=C(NCC(=O)N1CC2(C[C@H]1C(=O)NCc1nc3cnccc3s1)OCCO2)c1ccc2c(c1)Oc1ccccc1S2 [Compound 41, (S)-7-((phenoxathiine-3-carbonyl)glycyl)-N-(thiazolo[4,5-c]pyridin-2-ylmethyl)-1,4-dioxa-7-azaspiro[4.4]nonane-8-carboxamide] | > 1000 nM
8 | O=C(NCC(=O)N1CC2(C[C@H]1C(=O)NCc1cc3cnc(Cl)cc3[nH]1)OCCO2)c1ccc2c(c1)Oc1ccccc1S2 [Compound 43, (S)-N-((6-chloro-1H-pyrrolo[3,2-c]pyridin-2-yl)methyl)-7-((phenoxathiine-3-carbonyl)glycyl)-1,4-dioxa-7-azaspiro[4.4]nonane-8-carboxamide] | > 1000 nM
9 | C[C@@]12C[C@@H]1N(C(=O)CNC(=O)c1ccc3c(c1)Oc1ccccc1S3)[C@H](C(=O)NCc1cc3cnccc3[nH]1)C2 [Compound 44, (1S,3S,5S)-N-((1H-pyrrolo[3,2-c]pyridin-2-yl)methyl)-5-methyl-2-((phenoxathiine-3-carbonyl)glycyl)-2-azabicyclo[3.1.0]hexane-3-carboxamide] | < 100 nM
10 | O=C(NCC(=O)N1CC2(C[C@H]1C(=O)NCc1cc3cncc(F)c3[nH]1)OCCO2)c1ccc2c(c1)Oc1ccccc1S2 [Compound 45, (S)-N-((7-fluoro-1H-pyrrolo[3,2-c]pyridin-2-yl)methyl)-7-((phenoxathiine-3-carbonyl)glycyl)-1,4-dioxa-7-azaspiro[4.4]nonane-8-carboxamide] | > 1000 nM

Further lines, results first:

Row | IC50 | SMILES
11 | > 1000 nM | C[C@H](NC(=O)[C@@H]1CC2(CN1C(=O)CNC(=O)c1ccc3c(c1)-c1ccccc1C3(F)F)OCCO2)c1cc2cnccc2[nH]1 [Compound 23, (S)-N-((S)-1-(1H-pyrrolo[3,2-c]pyridin-2-yl)ethyl)-7-((9,9-difluoro-9H-fluorene-3-carbonyl)glycyl)-1,4-dioxa-7-azaspiro[4.4]nonane-8-carboxamide]
12 | < 100 nM | COC[C@@]1(F)C[C@@H](C(=O)NCc2cc3cnccc3[nH]2)N(C(=O)CNC(=O)c2ccc3c(c2)Oc2ccccc2S3)C1 [Compound 25, (2S,4R)-N-((1H-pyrrolo[3,2-c]pyridin-2-yl)methyl)-4-fluoro-4-(methoxymethyl)-1-((phenoxathiine-3-carbonyl)glycyl)pyrrolidine-2-carboxamide]
13 | < 100 nM | CS(=O)(=O)[C@@H]1C[C@@H](C(=O)NCc2cc3cnccc3[nH]2)N(C(=O)CNC(=O)c2ccc3c(c2)Oc2ccccc2S3)C1 [Compound 27, (2S,4R)-N-((1H-pyrrolo[3,2-c]pyridin-2-yl)methyl)-4-(methylsulfonyl)-1-((phenoxathiine-3-carbonyl)glycyl)pyrrolidine-2-carboxamide]
14 | > 1000 nM | O=C(NCC(=O)N1CC2(C[C@H]1C(=O)NCc1cc3ccccc3[nH]1)OCCO2)c1ccc2c(c1)Oc1ccccc1S2 [Compound 29, (S)-N-((1H-indol-2-yl)methyl)-7-((phenoxathiine-3-carbonyl)glycyl)-1,4-dioxa-7-azaspiro[4.4]nonane-8-carboxamide]
15 | < 100 nM | COC[C@@]1(F)C[C@@H](C(=O)NCc2cc3cnccc3[nH]2)N(C(=O)CNC(=O)c2ccc(Oc3ccccc3)cc2)C1 [Compound 30, (2S,4R)-N-((1H-pyrrolo[3,2-c]pyridin-2-yl)methyl)-4-fluoro-4-(methoxymethyl)-1-((4-phenoxybenzoyl)glycyl) pyrrolidine-2-carboxamide]
16 | > 1000 nM | O=C(NCC(=O)N1CC2(C[C@H]1C(=O)NCc1nc3cnccc3o1)OCCO2)c1ccc2c(c1)Oc1ccccc1S2 [Compound 31, (S)-N-(oxazolo[4,5-c]pyridin-2-ylmethyl)-7-((phenoxathiine-3-carbonyl)glycyl)-1,4-dioxa-7-azaspiro[4.4]nonane-8-carboxamide]
17 | < 100 nM | O=C(NCC(=O)N1CC2(C[C@H]1C(=O)NCc1cc3cnccc3[nH]1)OCCO2)c1ccc(Oc2ccccc2)cc1 [Compound 32, (S)-N-((1H-pyrrolo[3,2-]pyridin-2-yl)methyl)-7-((4-phenoxybenzoyl)glycyl)-1,4-dioxa-7-azaspiro[4.4]nonane-8-carboxamide]
18 | < 100 nM | O=C(NCC(=O)N1CC2(C[C@H]1C(=O)NCc1cc3cnccc3[nH]1)OCCO2)c1ccc2oc3ccccc3c2c1 [Compound 35, (S)-N-((1H-pyrrolo[3,2-c]pyridin-2-yl)methyl)-7-((dibenzo[b,d]furan-2-carbonyl)glycyl)-1,4-dioxa-7-azaspiro[4.4]nonane-8-carboxamide]
19 | < 100 nM | O=C(NCC(=O)N1CC2(C[C@H]1C(=O)NCc1cc3cnncc3[nH]1)OCCO2)c1ccc2c(c1)Oc1ccccc1S2 [Compound 37, (S)-N-((1H-pyrrolo[2,3-d]pyridazin-2-yl)methyl)-7-((phenoxathiine-3-carbonyl)glycyl)-1,4-dioxa-7-azaspiro[4.4]nonane-8-carboxamide]
20 | < 100 nM | C[C@@H](NC(=O)[C@@H]1CC2(CN1C(=O)CNC(=O)c1ccc3c(c1)-c1ccccc1C3(F)F)OCCO2)c1cc2cnccc2[nH]1 [Compound 38, (S)-N-((R)-1-(1H-pyrrolo[3,2-c]pyridin-2-yl)ethyl)-7-((9,9-difluoro-9H-fluorene-3-carbonyl)glycyl)-1,4-dioxa-7-azaspiro[4.4]nonane-8-carboxamide]
21 | < 100 nM | C[C@@H](NC(=O)[C@@H]1C[C@@H](OC(F)F)CN1C(=O)CNC(=O)c1ccc(Oc2ccccc2)cc1)c1cc2cnccc2[nH]1 [Compound 39, (2S,4R)-N-((R)-1-(1H-pyrrolo[3,2-c]pyridin-2-yl)ethyl)-4-(difluoromethoxy)-1-((4-phenoxybenzoyl)glycyl)pyrrolidine-2-carboxamide]
22 | 100 to 1000 nM | COC[C@@]1(F)C[C@@H](C(=O)N[C@H](C)c2cc3cnccc3[nH]2)N(C(=O)CNC(=O)c2ccc(Oc3ccccc3)cc2)C1 [Compound 40, (2S,4R)-N-((R)-1-(1H-pyrrolo[3,2-c]pyridin-2-yl)ethyl)-4-fluoro-4-(methoxymethyl)-1-((4-phenoxybenzoyl)glycyl) pyrrolidine-2-carboxamide]
23 | > 1000 nM | O=C(NCC(=O)N1CC2(C[C@H]1C(=O)NCc1cc3c(Cl)nccc3[nH]1)OCCO2)c1ccc2c(c1)Oc1ccccc1S2 [Compound 42, (S)-N-((4-chloro-1H-pyrrolo[3,2-c]pyridin-2-yl)methyl)-7-((phenoxathiine-3-carbonyl)glycyl)-1,4-dioxa-7-azaspiro[4.4]nonane-8-carboxamide]
